Source: ChEMBL document CHEMBL1201862, “PubChem BioAssay data set” (2004)
Calls of active or inactive are those of the source.

Tests used:
[1] = target: T1, Tyrosyl-DNA phosphodiesterase 2 (Homo sapiens, UniProt O95551); assay: potency against TDP2 phosphodiesterase activity – biochemical, epi absorbance, IC50, dose response (AID 743297)
T1 sequence (O95551 whole entry): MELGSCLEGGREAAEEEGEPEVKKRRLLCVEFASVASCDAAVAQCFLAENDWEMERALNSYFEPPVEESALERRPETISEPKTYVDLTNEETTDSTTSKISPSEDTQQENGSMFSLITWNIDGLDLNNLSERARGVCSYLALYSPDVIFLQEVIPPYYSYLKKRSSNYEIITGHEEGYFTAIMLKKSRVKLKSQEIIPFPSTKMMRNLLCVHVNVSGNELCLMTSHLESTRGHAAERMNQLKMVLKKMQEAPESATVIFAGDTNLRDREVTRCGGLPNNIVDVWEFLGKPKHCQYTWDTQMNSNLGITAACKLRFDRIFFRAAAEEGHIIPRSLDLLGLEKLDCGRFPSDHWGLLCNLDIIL

[2] = target: T2, Zinc finger protein mex-5 (Caenorhabditis elegans, UniProt Q9XUB2); assay: potency of MEX-5 RNA-binding blockers – biochemical, C. elegans, fluorescence polarization, dose response (AID 1960)
T2 sequence (Q9XUB2 whole entry): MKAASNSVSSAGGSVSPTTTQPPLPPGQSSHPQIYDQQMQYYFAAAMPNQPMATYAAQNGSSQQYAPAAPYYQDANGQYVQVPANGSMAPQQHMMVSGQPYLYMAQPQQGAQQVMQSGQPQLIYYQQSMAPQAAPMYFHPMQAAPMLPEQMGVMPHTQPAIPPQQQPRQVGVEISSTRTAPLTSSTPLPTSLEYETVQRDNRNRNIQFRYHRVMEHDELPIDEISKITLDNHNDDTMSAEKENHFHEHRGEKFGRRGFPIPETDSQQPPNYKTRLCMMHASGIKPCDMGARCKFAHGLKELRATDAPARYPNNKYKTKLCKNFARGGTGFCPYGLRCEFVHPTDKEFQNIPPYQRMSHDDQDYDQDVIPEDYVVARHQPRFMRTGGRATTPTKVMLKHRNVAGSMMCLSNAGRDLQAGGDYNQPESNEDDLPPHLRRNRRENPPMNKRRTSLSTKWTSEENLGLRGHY

[3] = activation of miR-122 Renilla sensor silencing – cell-based, Huh7 psiCHECK-miR122, Renilla luciferase, cherry-picked, dose response (AID 651956); assay type: functional;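 further: huh7 hepatoma cells stably carrying a psiCHECK-2 miR-122 sensor plasmid; renilla luciferase signal reporting endogenous miR-122 activity after 48 h compound exposure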
[4] = cells
[5] = system: HEK293; assay: cells; assay type: functional, cell-based; conditions: Homo sapiens
[6] = target: Nucleotide-binding oligomerization domain-containing protein 2 (Homo sapiens, UniProt Q9HC29); assay: inhibition of NOD2-driven NF-kB reporter – cell-based, luminescence, uHTS, HEK293 (AID 1566); assay type: functional
Sequence of Nucleotide-binding oligomerization domain-containing protein 2 (Q9HC29 whole entry, the tested form may be a part): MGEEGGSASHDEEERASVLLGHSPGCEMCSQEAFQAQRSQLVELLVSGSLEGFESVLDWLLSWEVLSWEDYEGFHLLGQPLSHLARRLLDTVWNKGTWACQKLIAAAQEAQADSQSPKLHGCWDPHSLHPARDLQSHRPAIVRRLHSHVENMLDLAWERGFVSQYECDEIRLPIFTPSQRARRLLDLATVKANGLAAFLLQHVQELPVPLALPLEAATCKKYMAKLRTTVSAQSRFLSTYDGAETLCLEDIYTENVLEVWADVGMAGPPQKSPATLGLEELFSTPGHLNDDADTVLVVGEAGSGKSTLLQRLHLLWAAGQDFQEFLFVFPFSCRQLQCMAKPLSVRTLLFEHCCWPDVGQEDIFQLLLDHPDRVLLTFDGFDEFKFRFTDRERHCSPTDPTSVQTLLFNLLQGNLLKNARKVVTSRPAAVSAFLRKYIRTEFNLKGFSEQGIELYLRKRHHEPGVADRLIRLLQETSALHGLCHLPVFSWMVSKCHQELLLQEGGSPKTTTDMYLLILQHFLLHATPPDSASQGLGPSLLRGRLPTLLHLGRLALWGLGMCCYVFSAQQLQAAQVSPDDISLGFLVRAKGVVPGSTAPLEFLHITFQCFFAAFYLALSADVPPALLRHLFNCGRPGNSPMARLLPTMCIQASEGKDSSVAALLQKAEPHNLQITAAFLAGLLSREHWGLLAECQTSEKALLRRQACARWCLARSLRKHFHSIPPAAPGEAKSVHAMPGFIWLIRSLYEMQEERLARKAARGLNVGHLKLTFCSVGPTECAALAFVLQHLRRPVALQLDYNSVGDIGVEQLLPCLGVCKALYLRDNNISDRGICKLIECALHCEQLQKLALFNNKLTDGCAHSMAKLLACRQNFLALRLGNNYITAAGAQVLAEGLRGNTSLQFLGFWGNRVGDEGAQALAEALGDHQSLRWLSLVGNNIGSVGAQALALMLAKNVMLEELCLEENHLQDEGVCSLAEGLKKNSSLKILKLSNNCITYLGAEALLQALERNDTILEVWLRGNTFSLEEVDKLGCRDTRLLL

[7] = system: HEK293; assay: inhibition of NOD1-driven NF-kB reporter – cell-based, luminescence, uHTS, primary screen (AID 1578); assay type: functional; conditions: Homo sapiens
[8] = Luminescence Cell-Based Secondary HTS screen to identify cytotoxic compounds of NIH3T3 cells. [Related pubchem assays: 1885, 1968 ]; assay type: functional
[9] = target: T3, Sentrin-specific protease 6 (Homo sapiens, UniProt Q9GZR1); assay type: functional;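 further: Luminescence-based dose-response confirmatory assay of SENP6 inhibition, following up an ultra-high-throughput screen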
T3 sequence (Q9GZR1 whole entry): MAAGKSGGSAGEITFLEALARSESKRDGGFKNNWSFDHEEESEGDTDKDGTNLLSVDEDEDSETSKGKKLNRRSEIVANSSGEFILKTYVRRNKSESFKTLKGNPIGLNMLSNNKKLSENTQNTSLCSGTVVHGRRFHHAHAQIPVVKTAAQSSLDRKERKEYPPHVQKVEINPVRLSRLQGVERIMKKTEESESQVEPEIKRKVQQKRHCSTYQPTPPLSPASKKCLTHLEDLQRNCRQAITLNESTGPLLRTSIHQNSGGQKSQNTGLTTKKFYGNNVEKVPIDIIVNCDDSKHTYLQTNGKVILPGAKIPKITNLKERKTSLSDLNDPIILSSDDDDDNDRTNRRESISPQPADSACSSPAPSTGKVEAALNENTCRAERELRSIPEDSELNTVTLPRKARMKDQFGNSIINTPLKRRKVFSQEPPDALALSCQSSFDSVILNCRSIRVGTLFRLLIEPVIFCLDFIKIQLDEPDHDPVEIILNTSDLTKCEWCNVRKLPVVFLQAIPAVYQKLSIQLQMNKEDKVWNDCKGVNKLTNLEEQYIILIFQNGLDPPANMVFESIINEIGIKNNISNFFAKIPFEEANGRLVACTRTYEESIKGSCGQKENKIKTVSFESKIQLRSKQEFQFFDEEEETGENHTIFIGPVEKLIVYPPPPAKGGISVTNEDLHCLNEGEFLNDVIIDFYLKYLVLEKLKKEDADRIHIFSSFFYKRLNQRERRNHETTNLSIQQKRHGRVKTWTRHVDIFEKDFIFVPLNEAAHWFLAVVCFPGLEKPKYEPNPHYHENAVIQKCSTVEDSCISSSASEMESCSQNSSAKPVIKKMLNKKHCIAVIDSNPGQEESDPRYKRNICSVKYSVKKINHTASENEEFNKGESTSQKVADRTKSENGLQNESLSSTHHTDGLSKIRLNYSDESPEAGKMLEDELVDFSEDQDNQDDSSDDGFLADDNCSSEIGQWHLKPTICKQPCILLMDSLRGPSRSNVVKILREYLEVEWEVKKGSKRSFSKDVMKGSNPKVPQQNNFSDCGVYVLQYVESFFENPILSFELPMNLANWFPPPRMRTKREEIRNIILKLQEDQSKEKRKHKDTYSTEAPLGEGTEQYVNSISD

[10] = target: Beta-galactosidase (Escherichia coli, UniProt Q8VNN2); assay: detection-enzyme interference by beta-gal modulators – biochemical, E. coli enzyme, set 3, artefact control for CCR6 antagonist project, dose response (AID 504712); assay type: functional
Sequence of Beta-galactosidase (Q8VNN2 whole entry): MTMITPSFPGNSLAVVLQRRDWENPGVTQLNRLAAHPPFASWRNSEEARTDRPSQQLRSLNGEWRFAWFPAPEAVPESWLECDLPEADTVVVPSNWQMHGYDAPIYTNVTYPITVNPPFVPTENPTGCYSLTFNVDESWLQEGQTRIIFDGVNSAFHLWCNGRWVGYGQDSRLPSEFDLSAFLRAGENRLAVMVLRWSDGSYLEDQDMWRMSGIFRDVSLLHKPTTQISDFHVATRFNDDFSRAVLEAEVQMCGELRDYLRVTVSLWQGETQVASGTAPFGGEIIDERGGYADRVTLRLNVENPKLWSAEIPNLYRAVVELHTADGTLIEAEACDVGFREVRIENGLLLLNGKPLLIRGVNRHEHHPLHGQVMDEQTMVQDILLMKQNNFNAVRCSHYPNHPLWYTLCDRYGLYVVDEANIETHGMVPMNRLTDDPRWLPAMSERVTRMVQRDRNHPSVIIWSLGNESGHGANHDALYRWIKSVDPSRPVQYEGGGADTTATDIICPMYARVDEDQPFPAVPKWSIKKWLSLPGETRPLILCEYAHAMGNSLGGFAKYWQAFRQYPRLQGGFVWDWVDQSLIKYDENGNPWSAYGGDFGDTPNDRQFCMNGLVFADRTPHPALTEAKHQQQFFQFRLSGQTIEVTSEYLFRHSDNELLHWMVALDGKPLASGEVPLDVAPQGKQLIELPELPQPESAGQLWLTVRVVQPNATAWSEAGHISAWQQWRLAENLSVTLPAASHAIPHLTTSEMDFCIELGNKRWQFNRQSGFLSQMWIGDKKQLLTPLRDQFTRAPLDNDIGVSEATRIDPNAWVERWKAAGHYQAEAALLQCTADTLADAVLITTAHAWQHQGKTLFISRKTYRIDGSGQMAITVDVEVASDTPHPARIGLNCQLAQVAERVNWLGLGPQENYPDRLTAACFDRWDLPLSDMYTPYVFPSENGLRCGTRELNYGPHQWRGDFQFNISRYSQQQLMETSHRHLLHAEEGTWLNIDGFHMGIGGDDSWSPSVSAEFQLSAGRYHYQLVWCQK

Structure (SMILES): O=C(O)CSc1cc(NS(=O)(=O)c2ccc(Br)cc2)c2ccccc2c1O
- IC50 [1]: 37.2 µM (inactive)
- EC50 [2]: 8.17 µM (active)

Structure (SMILES): O=C(CC(O)(C(F)(F)F)C(F)(F)F)Nc1ccc(Cl)c(Cl)c1
- AC50 [3]: 5.54 µM (active)

Structure (SMILES): O=C(CNc1cccc2ccccc12)N/N=C/c1ccc([N+](=O)[O-])o1
- EC50 [4]: 0.064 µM (active)
- IC50 [5]: 14.3 µM (active)
- EC50 [6]: 5.55 µM (active)
- EC50 [7]: 3.28 µM (active)
- EC50 [8]: 17.5 µM (active)

Structure (SMILES): O=C1NC(=S)N/C1=C/c1cc2c(cc1[N+](=O)[O-])OCO2
- IC50 [9]: 14.1 µM (active)

Structure (SMILES): Cc1ccc(NC(=O)C2=C(c3ccccc3)S(=O)(=O)CCS2(=O)=O)cc1
- IC50 [10]: > 66.6 µM (inactive)
